Data: patent EP4722207A1, “OXOISOINDOLINYL-SUBSTITUTED TETRAHYDROPYRIMIDINEDIONE DERIVATIVE AND USE THEREOF” (Gluetacs Therapeutics (Shanghai) Co., Ltd., priority 2023, dated 2024)

Key:
Assay type in all cases: cell-based
Details in all cases: compounds at 50 nM and 500 nM, 24 hours
GSPT1 = biological target: T1, GSPT1 (Homo sapiens, UniProt P15170+Q96SW2); assay: Western-blot assay, substrate protein degradation in hPBMCs: GSPT1
T1 construct: effects of the compounds of the present disclosure on the expression of target proteins in cells; endogenous in cells; host or cells: human PBMCs (hPBMCs)

WEE1 = biological target: T2, WEE1 (Homo sapiens, UniProt P30291+Q96SW2); assay: Western-blot assay, substrate protein degradation in hPBMCs: WEE1
T2 construct: effects of the compounds of the present disclosure on the expression of target proteins in cells; endogenous in cells; host or cells: human PBMCs (hPBMCs)

IKZF3 = biological target: T3, IKZF3 (Homo sapiens, UniProt Q96SW2+Q9UKT9); assay: Western-blot assay, substrate protein degradation in hPBMCs: IKZF3
T3 construct: effects of the compounds of the present disclosure on the expression of target proteins in cells; endogenous in cells; host or cells: human PBMCs (hPBMCs)

CK1α = biological target: T4, CK1α (Homo sapiens, UniProt P48729+Q96SW2); assay: Western-blot assay, substrate protein degradation in hPBMCs: CK1α
T4 construct: effects of the compounds of the present disclosure on the expression of target proteins in cells; endogenous in cells; host or cells: human PBMCs (hPBMCs)

IKZF1 = biological target: T5, IKZF1 (Homo sapiens, UniProt Q13422+Q96SW2); assay: Western-blot assay, substrate protein degradation in hPBMCs: IKZF1
T5 construct: effects of the compounds of the present disclosure on the expression of target proteins in cells; endogenous in cells; host or cells: human PBMCs (hPBMCs)

IKZF2 = biological target: T6, IKZF2 (Homo sapiens, UniProt Q96SW2+Q9UKS7); assay: Western-blot assay, substrate protein degradation in hPBMCs: IKZF2
T6 construct: effects of the compounds of the present disclosure on the expression of target proteins in cells; endogenous in cells; host or cells: human PBMCs (hPBMCs)
T6 sequence (Q9UKS7 whole entry): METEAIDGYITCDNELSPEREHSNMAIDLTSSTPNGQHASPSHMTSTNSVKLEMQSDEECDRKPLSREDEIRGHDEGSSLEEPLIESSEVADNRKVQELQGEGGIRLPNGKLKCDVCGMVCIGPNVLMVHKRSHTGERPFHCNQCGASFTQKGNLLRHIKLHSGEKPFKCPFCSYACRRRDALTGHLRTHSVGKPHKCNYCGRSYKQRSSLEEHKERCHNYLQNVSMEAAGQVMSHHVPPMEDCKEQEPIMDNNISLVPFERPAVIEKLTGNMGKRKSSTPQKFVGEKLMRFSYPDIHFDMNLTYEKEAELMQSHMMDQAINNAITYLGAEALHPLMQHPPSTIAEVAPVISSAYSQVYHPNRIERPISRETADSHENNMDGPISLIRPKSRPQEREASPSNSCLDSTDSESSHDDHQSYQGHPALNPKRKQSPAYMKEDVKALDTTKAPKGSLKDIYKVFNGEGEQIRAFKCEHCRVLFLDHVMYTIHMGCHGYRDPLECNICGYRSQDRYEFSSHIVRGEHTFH
T6 sequence (Q96SW2 whole entry): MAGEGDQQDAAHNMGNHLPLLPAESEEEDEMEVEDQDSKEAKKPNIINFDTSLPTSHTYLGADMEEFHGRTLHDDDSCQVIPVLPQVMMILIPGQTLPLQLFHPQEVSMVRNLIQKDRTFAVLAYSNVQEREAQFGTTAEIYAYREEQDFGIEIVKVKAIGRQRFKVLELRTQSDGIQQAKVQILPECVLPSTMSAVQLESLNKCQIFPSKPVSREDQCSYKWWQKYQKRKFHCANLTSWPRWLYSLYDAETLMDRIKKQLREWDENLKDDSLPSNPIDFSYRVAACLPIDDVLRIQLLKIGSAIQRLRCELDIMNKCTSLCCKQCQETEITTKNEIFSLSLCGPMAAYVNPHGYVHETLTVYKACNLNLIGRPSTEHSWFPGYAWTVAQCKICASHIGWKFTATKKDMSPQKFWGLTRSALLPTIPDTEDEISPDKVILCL
T6 sequence (Q16531 whole entry partner): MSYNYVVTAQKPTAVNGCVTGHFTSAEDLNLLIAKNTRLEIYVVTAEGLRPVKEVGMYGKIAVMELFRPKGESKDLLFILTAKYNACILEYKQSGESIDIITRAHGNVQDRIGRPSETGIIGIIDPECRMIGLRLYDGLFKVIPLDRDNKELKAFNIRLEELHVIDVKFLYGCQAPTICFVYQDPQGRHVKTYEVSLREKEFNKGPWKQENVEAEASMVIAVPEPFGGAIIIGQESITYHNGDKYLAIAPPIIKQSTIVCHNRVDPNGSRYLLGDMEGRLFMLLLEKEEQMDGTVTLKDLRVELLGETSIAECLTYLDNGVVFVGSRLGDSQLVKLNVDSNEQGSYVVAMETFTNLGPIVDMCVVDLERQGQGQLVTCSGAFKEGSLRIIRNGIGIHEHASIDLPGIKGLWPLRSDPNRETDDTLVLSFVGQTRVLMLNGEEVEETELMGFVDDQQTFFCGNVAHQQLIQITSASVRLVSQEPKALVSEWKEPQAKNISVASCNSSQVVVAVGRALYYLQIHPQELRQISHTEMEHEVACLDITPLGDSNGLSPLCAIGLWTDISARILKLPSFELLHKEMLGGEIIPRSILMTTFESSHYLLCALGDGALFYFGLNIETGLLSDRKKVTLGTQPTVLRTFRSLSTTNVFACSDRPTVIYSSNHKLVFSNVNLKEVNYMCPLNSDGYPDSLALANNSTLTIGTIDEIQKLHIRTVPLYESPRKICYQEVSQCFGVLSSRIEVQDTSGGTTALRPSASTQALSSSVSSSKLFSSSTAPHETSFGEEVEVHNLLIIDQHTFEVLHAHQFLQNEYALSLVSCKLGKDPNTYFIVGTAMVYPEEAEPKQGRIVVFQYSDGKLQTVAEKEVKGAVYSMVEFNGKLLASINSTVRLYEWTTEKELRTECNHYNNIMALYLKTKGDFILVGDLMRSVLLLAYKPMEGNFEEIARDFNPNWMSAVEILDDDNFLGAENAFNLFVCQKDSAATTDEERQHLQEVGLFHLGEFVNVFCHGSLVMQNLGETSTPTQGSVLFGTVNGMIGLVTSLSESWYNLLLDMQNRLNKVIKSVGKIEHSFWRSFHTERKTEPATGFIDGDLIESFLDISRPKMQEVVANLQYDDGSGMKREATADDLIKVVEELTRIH

T1 sequence (P15170 whole entry): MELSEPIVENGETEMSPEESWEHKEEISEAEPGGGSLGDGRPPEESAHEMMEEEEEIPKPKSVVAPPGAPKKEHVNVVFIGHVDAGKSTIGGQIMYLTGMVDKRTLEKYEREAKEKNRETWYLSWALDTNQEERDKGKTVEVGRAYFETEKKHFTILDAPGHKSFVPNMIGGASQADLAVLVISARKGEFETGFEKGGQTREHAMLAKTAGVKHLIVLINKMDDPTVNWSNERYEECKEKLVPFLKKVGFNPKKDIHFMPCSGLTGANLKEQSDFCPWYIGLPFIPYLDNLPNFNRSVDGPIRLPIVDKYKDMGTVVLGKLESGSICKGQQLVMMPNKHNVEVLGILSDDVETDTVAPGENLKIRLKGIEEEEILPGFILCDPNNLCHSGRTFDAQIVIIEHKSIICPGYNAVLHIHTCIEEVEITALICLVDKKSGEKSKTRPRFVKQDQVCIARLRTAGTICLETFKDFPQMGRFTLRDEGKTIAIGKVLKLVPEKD
T1 sequence (Q96SW2 whole entry): as the sequence (Q96SW2 whole entry) above
T1 sequence (Q16531 whole entry partner): as the sequence (Q16531 whole entry partner) above
T3 sequence (Q9UKT9 whole entry): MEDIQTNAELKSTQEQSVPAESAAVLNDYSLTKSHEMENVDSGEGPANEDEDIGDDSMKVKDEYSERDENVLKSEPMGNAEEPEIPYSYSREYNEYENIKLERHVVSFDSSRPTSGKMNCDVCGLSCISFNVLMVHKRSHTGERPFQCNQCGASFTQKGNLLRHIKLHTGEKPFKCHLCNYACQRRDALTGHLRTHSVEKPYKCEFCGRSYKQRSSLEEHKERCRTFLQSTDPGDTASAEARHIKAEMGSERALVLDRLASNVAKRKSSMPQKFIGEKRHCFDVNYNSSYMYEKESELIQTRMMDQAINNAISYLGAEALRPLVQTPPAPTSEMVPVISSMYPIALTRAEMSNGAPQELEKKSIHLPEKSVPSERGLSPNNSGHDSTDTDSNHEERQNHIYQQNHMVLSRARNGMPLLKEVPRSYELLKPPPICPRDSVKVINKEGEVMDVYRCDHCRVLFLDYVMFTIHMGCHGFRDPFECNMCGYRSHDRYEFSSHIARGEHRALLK
T3 sequence (Q96SW2 whole entry): as the sequence (Q96SW2 whole entry) above
T3 sequence (Q16531 whole entry partner): as the sequence (Q16531 whole entry partner) above
T4 sequence (P48729 whole entry): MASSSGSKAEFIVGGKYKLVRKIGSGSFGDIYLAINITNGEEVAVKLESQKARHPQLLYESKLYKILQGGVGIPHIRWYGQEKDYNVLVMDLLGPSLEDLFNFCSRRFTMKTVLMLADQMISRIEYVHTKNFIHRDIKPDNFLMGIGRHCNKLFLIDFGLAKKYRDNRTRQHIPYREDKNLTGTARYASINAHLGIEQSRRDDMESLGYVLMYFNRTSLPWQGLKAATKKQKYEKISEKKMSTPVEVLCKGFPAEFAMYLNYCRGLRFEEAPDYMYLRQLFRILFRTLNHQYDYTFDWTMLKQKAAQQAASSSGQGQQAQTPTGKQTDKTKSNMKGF
T4 sequence (Q96SW2 whole entry): as the sequence (Q96SW2 whole entry) above
T4 sequence (Q16531 whole entry partner): as the sequence (Q16531 whole entry partner) above
T2 sequence (P30291 whole entry): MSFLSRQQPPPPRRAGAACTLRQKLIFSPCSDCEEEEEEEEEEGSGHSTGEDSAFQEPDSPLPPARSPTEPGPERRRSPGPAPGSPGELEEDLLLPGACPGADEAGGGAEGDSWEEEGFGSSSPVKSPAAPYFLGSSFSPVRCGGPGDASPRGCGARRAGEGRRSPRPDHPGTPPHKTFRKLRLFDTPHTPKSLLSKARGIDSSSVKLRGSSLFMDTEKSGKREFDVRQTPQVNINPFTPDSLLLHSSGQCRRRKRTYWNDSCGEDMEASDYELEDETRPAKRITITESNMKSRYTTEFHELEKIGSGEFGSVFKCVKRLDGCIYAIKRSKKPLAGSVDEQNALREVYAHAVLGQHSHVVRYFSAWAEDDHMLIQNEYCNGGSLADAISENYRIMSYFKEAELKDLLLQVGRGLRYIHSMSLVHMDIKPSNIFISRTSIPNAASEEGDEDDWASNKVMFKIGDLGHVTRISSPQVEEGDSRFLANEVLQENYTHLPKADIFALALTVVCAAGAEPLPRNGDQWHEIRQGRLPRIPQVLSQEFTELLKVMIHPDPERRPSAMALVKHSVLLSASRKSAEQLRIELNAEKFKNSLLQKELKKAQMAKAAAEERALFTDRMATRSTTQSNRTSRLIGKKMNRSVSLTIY
T2 sequence (Q96SW2 whole entry): as the sequence (Q96SW2 whole entry) above
T2 sequence (Q16531 whole entry partner): as the sequence (Q16531 whole entry partner) above

O=C1CCN(N2C(=O)c3ccc(CN4CCN(c5ccncc5)CC4)cc3C2=O)C(=O)N1 [GT-07073, 2-(2,4-dioxotetrahydropyrimidin-1(2H)-yl)-5-((4-(pyridin-4-yl)piperazin-1-yl)methyl)isoindoline-1,3-dione] was tested, and the “GSPT1 substrate protein remaining %” value (GSPT1) was “B ("B" is defined as 80%< substrate protein remaining %≤ 100%)”, the “WEE1 substrate protein remaining %” value (WEE1) was “A ("A" is defined as 0% ≤ substrate protein remaining % ≤ 80%)” and the “IKZF3 substrate protein remaining %” value (IKZF3) was “B ("B" is defined as 80%< substrate protein remaining %≤ 100%)”. The “CK1α substrate protein remaining %” value (CK1α) was “B ("B" is defined as 80%< substrate protein remaining %≤ 100%)”, the “IKZF1 substrate protein remaining %” value (IKZF1) was “B ("B" is defined as 80%< substrate protein remaining %≤ 100%)” and the “IKZF2 substrate protein remaining %” value (IKZF2) was “B ("B" is defined as 80%< substrate protein remaining %≤ 100%)”.
In the case of O=C1CCN(N2Cc3cc(CN4CCN(c5cnccn5)CC4)ccc3C2=O)C(=O)N1 [GT-07160, 1-(1-oxo-5-((4-(pyrazin-2-yl)piperazin-1-yl)methyl)isoindolin-2-yl)dihydropyrimidine-2,4(1H,3H)-dione], the “GSPT1 substrate protein remaining %” value (GSPT1) is reported as “A ("A" is defined as 0% ≤ substrate protein remaining % ≤ 80%)”, the “WEE1 substrate protein remaining %” value (WEE1) is reported as “B ("B" is defined as 80%< substrate protein remaining %≤ 100%)” and the “IKZF3 substrate protein remaining %” value (IKZF3) is reported as “B ("B" is defined as 80%< substrate protein remaining %≤ 100%)”. For the same compound, the “CK1α substrate protein remaining %” value (CK1α) was “A ("A" is defined as 0% ≤ substrate protein remaining % ≤ 80%)”, the “IKZF1 substrate protein remaining %” value (IKZF1) was “B ("B" is defined as 80%< substrate protein remaining %≤ 100%)” and the “IKZF2 substrate protein remaining %” value (IKZF2) was “A ("A" is defined as 0% ≤ substrate protein remaining % ≤ 80%)”.
With Cc1cc(N2CCN(Cc3ccc4c(c3)C(=O)N(N3CCC(=O)NC3=O)C4=O)CC2)ccn1 [GT-07161, 2-(2,4-dioxotetrahydropyrimidin-1(2H)-yl)-5-((4-(2-methylpyridin-4-yl)piperazin-1-yl)methyl)isoindoline-1,3-dione] the “GSPT1 substrate protein remaining %” value (GSPT1) was “A ("A" is defined as 0% ≤ substrate protein remaining % ≤ 80%)”, the “WEE1 substrate protein remaining %” value (WEE1) was “B ("B" is defined as 80%< substrate protein remaining %≤ 100%)” and the “IKZF3 substrate protein remaining %” value (IKZF3) was “B ("B" is defined as 80%< substrate protein remaining %≤ 100%)”. The “CK1α substrate protein remaining %” value (CK1α) was “B ("B" is defined as 80%< substrate protein remaining %≤ 100%)”, the “IKZF1 substrate protein remaining %” value (IKZF1) was “B ("B" is defined as 80%< substrate protein remaining %≤ 100%)” and the “IKZF2 substrate protein remaining %” value (IKZF2) was “A ("A" is defined as 0% ≤ substrate protein remaining % ≤ 80%)”.
For O=C1CCN(N2C(=O)c3ccc(CN4CCN(c5nccc(F)c5F)CC4)cc3C2=O)C(=O)N1 [GT-07162, 5-((4-(3,4-difluoropyridin-2-yl)piperazin-1-yl)methyl)-2-(2,4-dioxotetrahydropyrimidin-1(2H)-yl)isoindoline-1,3-dione], the “GSPT1 substrate protein remaining %” value (GSPT1) was “A ("A" is defined as 0% ≤ substrate protein remaining % ≤ 80%)”, the “WEE1 substrate protein remaining %” value (WEE1) was “B ("B" is defined as 80%< substrate protein remaining %≤ 100%)” and the “IKZF3 substrate protein remaining %” value (IKZF3) was “B ("B" is defined as 80%< substrate protein remaining %≤ 100%)”. For the same compound, the “CK1α substrate protein remaining %” value (CK1α) was “A ("A" is defined as 0% ≤ substrate protein remaining % ≤ 80%)”, the “IKZF1 substrate protein remaining %” value (IKZF1) was “B ("B" is defined as 80%< substrate protein remaining %≤ 100%)” and the “IKZF2 substrate protein remaining %” value (IKZF2) was “A ("A" is defined as 0% ≤ substrate protein remaining % ≤ 80%)”.
In the case of O=C1CCN(N2C(=O)c3ccc(CN4CCN(c5ccncc5Br)CC4)cc3C2=O)C(=O)N1 [GT-07163, 5-((4-(3-bromopyridin-4-yl)piperazin-1-yl)methyl)-2-(2,4-dioxotetrahydropyrimidin-1(2H)-yl)isoindoline-1,3-dione], the “GSPT1 substrate protein remaining %” value (GSPT1) is reported as “A ("A" is defined as 0% ≤ substrate protein remaining % ≤ 80%)”, the “WEE1 substrate protein remaining %” value (WEE1) is reported as “B ("B" is defined as 80%< substrate protein remaining %≤ 100%)” and the “IKZF3 substrate protein remaining %” value (IKZF3) is reported as “B ("B" is defined as 80%< substrate protein remaining %≤ 100%)”. The “CK1α substrate protein remaining %” value (CK1α) was “B ("B" is defined as 80%< substrate protein remaining %≤ 100%)”, the “IKZF1 substrate protein remaining %” value (IKZF1) was “B ("B" is defined as 80%< substrate protein remaining %≤ 100%)” and the “IKZF2 substrate protein remaining %” value (IKZF2) was “A ("A" is defined as 0% ≤ substrate protein remaining % ≤ 80%)”.
With O=C1CCN(N2C(=O)c3ccc(CN4CCN(c5ccncc5F)CC4)cc3C2=O)C(=O)N1 [GT-07164, 2-(2,4-dioxotetrahydropyrimidin-1(2H)-yl)-5-((4-(3-fluoropyridin-4-yl)piperazin-1-yl)methyl)isoindoline-1,3-dione] the “GSPT1 substrate protein remaining %” value (GSPT1) was “A ("A" is defined as 0% ≤ substrate protein remaining % ≤ 80%)”, the “WEE1 substrate protein remaining %” value (WEE1) was “B ("B" is defined as 80%< substrate protein remaining %≤ 100%)” and the “IKZF3 substrate protein remaining %” value (IKZF3) was “B ("B" is defined as 80%< substrate protein remaining %≤ 100%)”. The “CK1α substrate protein remaining %” value (CK1α) was “B ("B" is defined as 80%< substrate protein remaining %≤ 100%)”, the “IKZF1 substrate protein remaining %” value (IKZF1) was “B ("B" is defined as 80%< substrate protein remaining %≤ 100%)” and the “IKZF2 substrate protein remaining %” value (IKZF2) was “A ("A" is defined as 0% ≤ substrate protein remaining % ≤ 80%)”.
O=C1CCN(N2C(=O)c3ccc(CN4CCN(c5ccncc5Cl)CC4)cc3C2=O)C(=O)N1 [GT-07165, 5-((4-(3-chloropyridin-4-yl)piperazin-1-yl)methyl)-2-(2,4-dioxotetrahydropyrimidin-1(2H)-yl)isoindoline-1,3-dione] was tested, and the “GSPT1 substrate protein remaining %” value (GSPT1) was “A ("A" is defined as 0% ≤ substrate protein remaining % ≤ 80%)”, the “WEE1 substrate protein remaining %” value (WEE1) was “B ("B" is defined as 80%< substrate protein remaining %≤ 100%)” and the “IKZF3 substrate protein remaining %” value (IKZF3) was “B ("B" is defined as 80%< substrate protein remaining %≤ 100%)”. For the same compound, the “CK1α substrate protein remaining %” value (CK1α) was “B ("B" is defined as 80%< substrate protein remaining %≤ 100%)”, the “IKZF1 substrate protein remaining %” value (IKZF1) was “B ("B" is defined as 80%< substrate protein remaining %≤ 100%)” and the “IKZF2 substrate protein remaining %” value (IKZF2) was “A ("A" is defined as 0% ≤ substrate protein remaining % ≤ 80%)”.
O=C1CCN(N2C(=O)c3ccc(CN4CCN(c5ccnc(Cl)c5F)CC4)cc3C2=O)C(=O)N1 [GT-07166, 5-((4-(2-chloro-3-fluoropyridin-4-yl)piperazin-1-yl)methyl)-2-(2,4-dioxotetrahydropyrimidin-1(2H)-yl)isoindoline-1,3-dione] was tested, and the “GSPT1 substrate protein remaining %” value (GSPT1) was “A ("A" is defined as 0% ≤ substrate protein remaining % ≤ 80%)”, the “WEE1 substrate protein remaining %” value (WEE1) was “B ("B" is defined as 80%< substrate protein remaining %≤ 100%)” and the “IKZF3 substrate protein remaining %” value (IKZF3) was “B ("B" is defined as 80%< substrate protein remaining %≤ 100%)”. The “CK1α substrate protein remaining %” value (CK1α) was “B ("B" is defined as 80%< substrate protein remaining %≤ 100%)”, the “IKZF1 substrate protein remaining %” value (IKZF1) was “B ("B" is defined as 80%< substrate protein remaining %≤ 100%)” and the “IKZF2 substrate protein remaining %” value (IKZF2) was “A ("A" is defined as 0% ≤ substrate protein remaining % ≤ 80%)”.
For O=C1CCN(N2C(=O)c3ccc(CN4CCN(c5ccnc(Br)c5F)CC4)cc3C2=O)C(=O)N1 [GT-07167, 5-((4-(2-bromo-3-fluoropyridin-4-yl)piperazin-1-yl)methyl)-2-(2,4-dioxotetrahydropyrimidin-1(2H)-yl)isoindoline-1,3-dione], the “GSPT1 substrate protein remaining %” value (GSPT1) was “A ("A" is defined as 0% ≤ substrate protein remaining % ≤ 80%)”, the “WEE1 substrate protein remaining %” value (WEE1) was “B ("B" is defined as 80%< substrate protein remaining %≤ 100%)” and the “IKZF3 substrate protein remaining %” value (IKZF3) was “B ("B" is defined as 80%< substrate protein remaining %≤ 100%)”. The “CK1α substrate protein remaining %” value (CK1α) was “B ("B" is defined as 80%< substrate protein remaining %≤ 100%)”, the “IKZF1 substrate protein remaining %” value (IKZF1) was “B ("B" is defined as 80%< substrate protein remaining %≤ 100%)” and the “IKZF2 substrate protein remaining %” value (IKZF2) was “A ("A" is defined as 0% ≤ substrate protein remaining % ≤ 80%)”.
For O=C1CCN(N2C(=O)c3ccc(CN4CCN(c5ccnc(Cl)c5Br)CC4)cc3C2=O)C(=O)N1 [GT-07168, 5-((4-(3-bromo-2-chloropyridin-4-yl)piperazin-1-yl)methyl)-2-(2,4-dioxotetrahydropyrimidin-1(2H)-yl)isoindoline-1,3-dione], the “GSPT1 substrate protein remaining %” value (GSPT1) was “A ("A" is defined as 0% ≤ substrate protein remaining % ≤ 80%)”, the “WEE1 substrate protein remaining %” value (WEE1) was “B ("B" is defined as 80%< substrate protein remaining %≤ 100%)” and the “IKZF3 substrate protein remaining %” value (IKZF3) was “B ("B" is defined as 80%< substrate protein remaining %≤ 100%)”. The “CK1α substrate protein remaining %” value (CK1α) was “B ("B" is defined as 80%< substrate protein remaining %≤ 100%)”, the “IKZF1 substrate protein remaining %” value (IKZF1) was “B ("B" is defined as 80%< substrate protein remaining %≤ 100%)” and the “IKZF2 substrate protein remaining %” value (IKZF2) was “A ("A" is defined as 0% ≤ substrate protein remaining % ≤ 80%)”.
